The source of these data is US7132504B2, “Hepatitis C virus inhibitors” (Bristol-Myers Squibb Company, priority 2003, dated 2006).

In assay [1] the target is BMS strain of the NS3/4A protease complex (UniProt P27958, C1454S/C1711G, species not given/STRAIN_BMS). Description: Recombinant HCV NS3/4A protease complex FRET peptide assay, BMS strain. Type of assay: biochemical, HCV genotype 1a (BMS strain). An excerpt: (§1) The purpose of this in vitro assay was to measure the inhibition of HCV NS3 protease complexes, derived from the BMS strain, H77 strain or J416S strain, as described below, by compounds of the present invention. This assay provides an indication of how effective compounds of the present invention would be in inhibiting HCV proteolytic activity.
(§2) Serum from an HCV-infected patient was obtained from Dr. T. Wright, San Francisco Hospital. An engineered full-length cDNA (compliment deoxyribonucleic acid) template of the HCV genome (BMS strain) was constructed from DNA fragments obtained by reverse transcription-PCR (RT-PCR) of serum RNA (ribonucleic acid) and using primers selected on the basis of homology between other genotype 1a strains. From the determination of the entire genome sequence, a genotype 1a was assigned to the HCV isolate according to the classification of Simmonds et al. (See P Simmonds, K A Rose, S Graham, S W Chan, F McOmish, B C Dow, E A Follett, P L Yap and H Marsden, J. Clin. Microbiol., 31(6), 1493–1503 (1993)). […]

The target in assay [2] is T1, NS3/4A protease complex, H77 strain (Hepatitis C virus genotype 1a, UniProt P27958, C1454S/C1711G).
T1 construct: DNA encoding the recombinant HCV NS3/4A protease complex (amino acids 1027 to 1711) for these strains; inferred from pET21b vector and Ni-NTA purification; made in house; host or cells: Escherichia coli BL21 (DE3), pET21b
T1 sequence (P27958 1027-1711 C1454S/C1711G, one chain of several): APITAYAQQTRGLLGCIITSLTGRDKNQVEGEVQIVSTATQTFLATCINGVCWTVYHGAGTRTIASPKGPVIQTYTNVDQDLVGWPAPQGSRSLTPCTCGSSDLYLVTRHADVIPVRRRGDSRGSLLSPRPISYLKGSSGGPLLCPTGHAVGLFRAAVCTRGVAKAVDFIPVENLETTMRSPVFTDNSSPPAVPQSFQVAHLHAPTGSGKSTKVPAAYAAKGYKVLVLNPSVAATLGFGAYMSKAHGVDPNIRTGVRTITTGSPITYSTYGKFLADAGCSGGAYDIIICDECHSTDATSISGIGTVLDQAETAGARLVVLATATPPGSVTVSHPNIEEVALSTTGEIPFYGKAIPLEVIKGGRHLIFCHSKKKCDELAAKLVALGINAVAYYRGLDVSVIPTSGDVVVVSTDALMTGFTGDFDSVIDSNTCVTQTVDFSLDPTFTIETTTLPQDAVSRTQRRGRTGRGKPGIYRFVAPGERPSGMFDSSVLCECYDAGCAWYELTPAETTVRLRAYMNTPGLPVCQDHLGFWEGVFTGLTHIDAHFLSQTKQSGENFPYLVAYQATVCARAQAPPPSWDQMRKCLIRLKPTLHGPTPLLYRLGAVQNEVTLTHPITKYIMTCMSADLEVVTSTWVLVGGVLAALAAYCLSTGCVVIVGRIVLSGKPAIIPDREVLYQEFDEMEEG
Description: Recombinant HCV NS3/4A protease complex FRET peptide assay, H77 strain. Type of assay: biochemical, HCV genotype 1a (H77).
Excerpt: as §1, §2

Regarding `C=CC1C[C@]1(NC(=O)[C@@H]1C[C@@H](Oc2cc(-c3ccccc3)nc3cc(OC)ccc23)CN1C(=O)[C@@H](NC(=O)OC)C(C)(C)C)C(=O)NS(=O)(=O)N(C)Cc1ccccc1` (some centres unmarked) [Compound 9], the values for the IC50 in assay [1] and in assay [2] were 128 nM and 62 nM, respectively.
